The values that follow come from publication PMC7354613 (Viruses, 2020).

Where two headings read alike, the source gives them in different places.

One may read the EC50 as the concentration at which the effect is half-maximal. For orientation: CC50 means the concentration that lowers cell viability or growth by half. Read a low CC50 as greater toxicity to the cells.

Series [1] deals with OM-10.1 cells latently infected with HIV-1. Briefly: HIV activation dose response, Gag p24 ELISA of supernatant, OM-10.1 cells. It is filed as cell-based. The note with it: Human immunodeficiency virus 1, 48 h, read-out: EC50 HIV activation OM-10.1. On the technique in general: ELISA stands for enzyme-linked immunosorbent assay.
Series [2] can be described thus: Cytotoxicity, CellTiter-Blue, J-Lat A2 cells. The format is cell-based. The note with it: human, 48 h treatment, mean ± SD, n = 3. (In general: Alamar Blue is a resazurin reagent that responds to reducing activity.)
Series [3] in a line: Cytotoxicity, CellTiter-Blue, U1 cells. It is filed as cell-based. The note with it: human, 48 h treatment, mean ± SD, n = 3.
The subject of series [4] is U1 cells latently infected with HIV-1. Briefly: HIV reactivation, Gag p24 ELISA of supernatant, U1 cells. The format is cell-based. The note with it: Human immunodeficiency virus 1, 48 h, read-out: EC50 HIV activation U1.
The nature of series [5]: Cytotoxicity, CellTiter-Blue, J-Lat 10.6 cells. To be noted: human, 48 h treatment, mean ± SD, n = 3. The format is cell-based.
Series [6] is described as follows: Cytotoxicity, CellTiter-Blue, ACH-2 cells. It is filed as cell-based. The note with it: human; 48 h treatment; mean ± SD, n = 3.
The test system of another series is J-Lat A2 cells. Put plainly: HIV reactivation, GFP expression by flow cytometry, J-Lat A2 cells. The format is cell-based, HIV-1. To be noted: Human immunodeficiency virus 1, J-Lat A2, 48 h, read-out: EC50 HIV activation J-Lat A2. A general note: A flow cytometer gives signals particle by particle.
The nature of series [7]: Cytotoxicity, CellTiter-Blue, OM-10.1 cells. The format is cell-based. To be noted: human, 48 h treatment, mean ± SD, n = 3.
The subject of a further series is J-Lat 10.6 cells. Put plainly: HIV reactivation, GFP expression by flow cytometry, J-Lat 10.6 cells. The format is cell-based, HIV-1. To be noted: for EC50: Human immunodeficiency virus 1, J-Lat 10.6, 48 h, read-out: EC50 HIV activation J-Lat 10.6; for GFP expression with respect to the PMA control set to 100: J-Lat 10.6, 48 h, 0.5 µM PKCa, 0.3 µM HDACi.
The test system of series [8] is OM-10.1, U1, ACH-2, J-Lat 10.6 and J-Lat A2 cells. It is filed as cell-based, HIV-1. To be noted: read-out: EC50 HIV activation.
The subject of series [9] is ACH-2 cells latently infected with HIV-1. Briefly: HIV reactivation, Gag p24 ELISA of supernatant, ACH-2 cells. The format is cell-based. To be noted: Human immunodeficiency virus 1, ACH-2, 48 h, read-out: EC50 HIV activation ACH-2.
A further series relates to total CD4+ T-cells. Briefly: CD4 and CD3 surface expression by flow cytometry. The format is cell-based, human. To be noted: 24 h, 0.5 µM PKCa, 0.3 µM HDACi, untreated about 97%.
The subject of series [10] is OM-10.1 cells latently infected with HIV-1. Briefly: Envelope gp120 expression by flow cytometry, OM-10.1 cells. The note with it: live cells. It is filed as cell-based.
For series [11] the test system is unchanged. Put plainly: Gag p24 immunoblot with densitometry, OM-10.1 cells. The format is cell-based. The note with it: 48 h.
For series [12] the test system is unchanged. Put plainly: HIV RNA by real-time qRT-PCR, OM-10.1 cells. It is filed as cell-based. The note with it: 48 h.
For series [13], the system named is ACH-2 cells latently infected with HIV-1. Briefly: Envelope gp120 expression by flow cytometry, ACH-2 cells. The format is cell-based. To be noted: live cells.
Where [14] appears, read: Human immunodeficiency virus 1, range over all the cell lines tested, 48 h.

Regarding `CC(C)[C@H](C(=O)Nc1ccc(C(=O)NO)cc1)c1ccccc1` [AR-42], the EC50 is 530 ± 80 nM in [1]; 260 ± 100 nM in series [4]; 440 ± 50 nM in the series on J-Lat A2 cells; 550 ± 20 nM in the series with J-Lat 10.6 cells; 240 to 550 nM in series [8] (setting [14]); 240 ± 40 nM in series [9]. Further, the cytotoxic concentration (CC50) at 48 h was 530 ± 50 nM in series [2], ~8000 nM in [3], 450 ± 20 nM in [5] and 400 ± 10 nM in series [7] (OM-10.1 cells). Besides, in series [6], it took 410 ± 10 nM to reach half-maximal cytotoxicity (CC50). Moreover, the “GFP expression with respect to the PMA control set to 100” value (shortened to “GFP expression”) with J-Lat 10.6 cells was determined as 10.2%.
For the molecule `CC(=O)O[C@@]12C[C@@H](C)[C@@]3(O)[C@@H](C=C(CO)C[C@]4(O)C(=O)C(C)=C[C@@H]34)[C@@H]1C2(C)C` [Prostratin], the EC50 was 410 ± 30 nM in series [1]; 300 ± 30 nM in [4]; 870 ± 30 nM with J-Lat A2 cells; 680 ± 10 nM with J-Lat 10.6 cells; 300 to 870 nM in series [8] (setting [14]); 310 ± 70 nM in series [9]. Further, the CC50 at 48 h in series [2], in [3] and in series [5] was > 8000 nM throughout. Further, in the series on total CD4+ T-cells, the “cells expressing CD4 (CD4 expression, R1)” value (from here on “cells expressing CD4”) is recorded as “about 53%”. The cytotoxic concentration (CC50) in series [6] and in series [7] was > 8000 nM each time. Moreover, the “GFP expression” value with J-Lat 10.6 cells is given as 37%.
Turning to `CC(C)[C@H]1C(=O)N[C@H](CO)Cc2cc(NC(=O)/C=C/C=C/c3ccc(C(F)(F)F)cc3)ccc2N1C` [TPPB], the EC50 in [1] worked out at 130 ± 10 nM; in series [4], 210 ± 10 nM; in the series with J-Lat A2 cells, 490 ± 30 nM; with J-Lat 10.6 cells it was 510 ± 80 nM; in series [9], 70 ± 10 nM. Further, the CC50 at 48 h in series [2], in series [3] and in series [5] was > 8000 nM in each case. Further, in the series with total CD4+ T-cells, the “cells expressing CD4” value is listed as 18%. The CC50 in series [6] and in series [7] was > 8000 nM each time.
As to `CN(C)Cc1c(C(=O)NCCOc2ccc(C(=O)NO)cc2)oc2ccccc12` [PCI-24781], the EC50 in series [1] amounted to 350 ± 40 nM; in series [4], 460 ± 30 nM; in the series on J-Lat A2 cells it was 380 ± 50 nM; in the series on J-Lat 10.6 cells, 450 ± 20 nM; in series [9], 370 ± 40 nM. Further, the CC50 at 48 h is 540 ± 30 nM in [2], ~8000 nM in series [3] and 400 ± 20 nM in series [5]. The CC50 in series [6] worked out at 310 ± 20 nM; in [7] it was 400 ± 20 nM. For the same molecule, the “GFP expression” value with J-Lat 10.6 cells worked out at 6.5%.
Consider TNFα, for which the “cells expressing gp120” value was 70% in series [10] (24 h) and 42% in [10] (48 h). The “cell-associated Gag p24, fold compared to treatment with PMA” value in series [11] (immunoblot densitometry) was 12–30 fold. In addition, the “extracellular p24, fold with respect to PMA-treated control” value in series [11] (viral lysate immunoblot) is given as 1.5 fold. Moreover, the “HIV-1 RNA expression, fold with respect to the untreated control” value in series [12] (cell-associated RNA) worked out at 300 fold. Further, the “HIV-1 RNA expression, fold with respect to the PMA-treated control” value in series [12] (cell-associated RNA, 0.5 µM PKCa, 0.3 µM HDACi) is “about 30 fold”. For the same molecule, the “extracellular viral RNA, fold with respect to PMA-treated control” value in series [12] (culture supernatant) turned out to be 1.5 fold.
Turning to `CCCCCCCCCCCCCC(=O)O[C@@H]1[C@@H](C)[C@@]2(O)[C@@H](C=C(CO)C[C@]3(O)C(=O)C(C)=C[C@@H]23)[C@@H]2C(C)(C)[C@]12OC(C)=O` [PMA, phorbol 12-myristate 13-acetate], the “cells expressing gp120” value in series [13] (24 h) came to 46%; in series [13] (48 h), 43%; in series [10] (24 h) it was 50%; in series [10] (48 h), 24%. In series [12] (cell-associated RNA), the “HIV-1 RNA expression, fold with respect to the untreated control” value is listed as “about 10 fold”.
For the molecule `O=C(/C=C/c1cccc(S(=O)(=O)Nc2ccccc2)c1)NO` [Belinostat], the EC50 in series [1] is 880 ± 400 nM; in [4] it was 770 ± 10 nM; in the series with J-Lat A2 cells, 940 ± 50 nM; in the series with J-Lat 10.6 cells, 940 ± 30 nM; in [8] (setting [14]), 440 to 940 nM; in series [9], 440 ± 30 nM. For the same molecule, the 50% cytotoxic concentration (CC50) at 48 h is 1400 ± 20 nM in series [2], > 8000 nM in series [3], 1400 ± 60 nM in series [5] and 2700 ± 200 nM in series [7] (OM-10.1 cells). In series [6], this molecule returned a half-maximal cytotoxic concentration (CC50) of 1100 ± 200 nM.
Consider `CCN(CC)Cc1ccc2cc(COC(=O)Nc3ccc(C(=O)NO)cc3)ccc2c1` [Givinostat], for which the concentration giving a half-maximal response (EC50) in [1] came out at 450 ± 130 nM; in [4], 630 ± 20 nM; in the series with J-Lat A2 cells, 700 ± 50 nM; in the series with J-Lat 10.6 cells it was 880 ± 40 nM; in series [9], 320 ± 40 nM. Also, the values for the 50% cytotoxic concentration (CC50) at 48 h in [2], in series [3] and in series [5] were 1200 ± 20 nM, ~4000 nM and 930 ± 40 nM, respectively. In addition, the CC50 was found to be 630 ± 30 nM in series [6] and 420 ± 10 nM in series [7]. The “GFP expression” value in the series on J-Lat 10.6 cells is 2.9%.
For `CC(C)C1C(=O)NC(CO)Cc2c[nH]c3cccc(c23)N1C` (single isomer, unassigned; (-)) [(-)-Indolactam V], the EC50 in series [1] is 90 ± 20 nM; in series [4] it was 120 ± 20 nM; in the series on J-Lat A2 cells it was 320 ± 50 nM; with J-Lat 10.6 cells, 200 ± 40 nM; in series [8] (Human immunodeficiency virus 1, 48 h), 90 to 320 nM; in [9], 180 ± 30 nM. Further, the 50% cytotoxic concentration (CC50) at 48 h in series [2], in series [3], in series [5], in series [6] and in series [7] was > 8000 nM in each case. In the series on total CD4+ T-cells, the “cells expressing CD4” value worked out at 5.5%.
